Data published in patent US6352958B1, “Cycloimido-substituted benzofused heterocyclic herbicides” (FMC Corporation, priority 1997, dated 2002).

How the values were obtained:
Assay type in all cases: in vivo
[1] = test system: wheat (Triticum aestivum var. Lew); experiment: Preemergence herbicidal activity, wheat; settings: Rate of Application 0.3 Kg/Ha, examined after 12-17 days
[2] = test system: common chickweed (Stellaria media); experiment: Postemergence herbicidal activity, chickweed; settings: rate of application 0.3 Kg/Ha, rated after 12-17 days
[3] = test system: green foxtail (Setaria viridis); experiment: Preemergence herbicidal activity, green foxtail; settings: Rate of Application 0.3 Kg/Ha, examined after 12-17 days
[4] = test system: green foxtail (Setaria viridis); experiment: Postemergence herbicidal activity, green foxtail; settings: rate of application 0.3 Kg/Ha, rated after 12-17 days
[5] = test system: blackgrass (Aloepecurus myosuroides); experiment: Postemergence herbicidal activity, blackgrass; settings: rate of application 0.3 Kg/Ha, rated after 12-17 days
[6] = test system: field corn (Zea mays var. Pioneer 3732); experiment: Preemergence herbicidal activity, corn; settings: Rate of Application 0.3 Kg/Ha, examined after 12-17 days
[7] = test system: morningglory (Ipomea lacunosa or Ipomea hederacea); experiment: Postemergence herbicidal activity, morningglory; settings: rate of application 0.3 Kg/Ha, rated after 12-17 days
[8] = test system: common cocklebur (Xanthium strumarium L.); experiment: Preemergence herbicidal activity, cocklebur; settings: Rate of Application 0.3 Kg/Ha, examined after 12-17 days
[9] = test system: soybean (Glycine max var. Winchester); experiment: Postemergence herbicidal activity, soybean; settings: rate of application 0.3 Kg/Ha, rated after 12-17 days
[10] = test system: Johnsongrass (Sorghum halepense); experiment: Preemergence herbicidal activity, johnsongrass; settings: Rate of Application 0.3 Kg/Ha, examined after 12-17 days
[11] = test system: velvetleaf (Abutilon theophrasti); experiment: Postemergence herbicidal activity, velvetleaf; settings: rate of application 0.3 Kg/Ha, rated after 12-17 days
[12] = test system: common cocklebur (Xanthium strumarium L.); experiment: Postemergence herbicidal activity, cocklebur; settings: rate of application 0.3 Kg/Ha, rated after 12-17 days
[13] = test system: morningglory (Ipomea lacunosa or Ipomea hederacea); experiment: Preemergence herbicidal activity, morningglory; settings: Rate of Application 0.3 Kg/Ha, examined after 12-17 days
[14] = test system: Johnsongrass (Sorghum halepense); experiment: Postemergence herbicidal activity, johnsongrass; settings: rate of application 0.3 Kg/Ha, rated after 12-17 days
[15] = test system: wheat (Triticum aestivum var. Lew); experiment: Postemergence herbicidal activity, wheat; settings: rate of application 0.3 Kg/Ha, rated after 12-17 days
[16] = test system: blackgrass (Aloepecurus myosuroides); experiment: Preemergence herbicidal activity, blackgrass; settings: Rate of Application 0.3 Kg/Ha, examined after 12-17 days
[17] = test system: velvetleaf (Abutilon theophrasti); experiment: Preemergence herbicidal activity, velvetleaf; settings: Rate of Application 0.3 Kg/Ha, examined after 12-17 days
[18] = test system: soybean (Glycine max var. Winchester); experiment: Preemergence herbicidal activity, soybean; settings: Rate of Application 0.3 Kg/Ha, examined after 12-17 days
[19] = test system: field corn (Zea mays var. Pioneer 3732); experiment: Postemergence herbicidal activity, corn; settings: rate of application 0.3 Kg/Ha, rated after 12-17 days
[20] = test system: common chickweed (Stellaria media); experiment: Preemergence herbicidal activity, chickweed; settings: Rate of Application 0.3 Kg/Ha, examined after 12-17 days

Row | Structure (SMILES) | PREEMERGENCE HERBICIDAL ACTIVITY (% CONTROL) WHT [1] | Postemergence herbicidal activity (% control) STEME [2] | PREEMERGENCE HERBICIDAL ACTIVITY (% CONTROL) SETVI [3] | Postemergence herbicidal activity (% control) SETVI [4] | Postemergence herbicidal activity (% control) ALOMY [5] | PREEMERGENCE HERBICIDAL ACTIVITY (% CONTROL) CRN [6] | Postemergence herbicidal activity (% control) IPOSS [7] | PREEMERGENCE HERBICIDAL ACTIVITY (% CONTROL) XANPE [8] | Postemergence herbicidal activity (% control) SOY [9] | PREEMERGENCE HERBICIDAL ACTIVITY (% CONTROL) SORHA [10] | Postemergence herbicidal activity (% control) ABUTH [11] | Postemergence herbicidal activity (% control) XANPE [12] | PREEMERGENCE HERBICIDAL ACTIVITY (% CONTROL) IPOSS [13] | Postemergence herbicidal activity (% control) SORHA [14] | Postemergence herbicidal activity (% control) WHT [15] | PREEMERGENCE HERBICIDAL ACTIVITY (% CONTROL) ALOMY [16] | PREEMERGENCE HERBICIDAL ACTIVITY (% CONTROL) ABUTH [17] | PREEMERGENCE HERBICIDAL ACTIVITY (% CONTROL) SOY [18] | Postemergence herbicidal activity (% control) CRN [19] | PREEMERGENCE HERBICIDAL ACTIVITY (% CONTROL) STEME [20]
1 | CC(Cl)c1cc2c(Cl)cc(F)c(-n3c(=O)cc(C(F)(F)F)n(C)c3=O)c2o1 (stereo not shown) [Compound 234] | 100% | 100% | 100% | 100% | 100% | 100% | 100% | 100% | 100% | 100% | 100% | 100% | 100% | 100% | 100% | 80% | 100% | 100% | 100% | 100%
2 | CC(F)c1cc2c(Cl)cc(F)c(-n3c(=O)cc(C(F)(F)F)n(C)c3=O)c2o1 (stereo not shown) [Compound 235] | 90% | 100% | 100% | 100% | 100% | 100% | 100% | 100% | 100% | 100% | 100% | 100% | 100% | 100% | 100% | 80% | 100% | 100% | 100% | 100%
3 | Cn1c(C(F)(F)F)cc(=O)n(-c2c(F)cc(Cl)c3cc(CCCl)oc23)c1=O [Compound 236] | 70% | 100% | 100% | 100% | 80% | 95% | 100% | 100% | 100% | 100% | 100% | 100% | 100% | 100% | 75% | 80% | 100% | 100% | 90% | 100%
4 | Cn1c(C(F)(F)F)cc(=O)n(-c2c(F)cc(Cl)c3cc(C(C)(C)O)oc23)c1=O [Compound 242] | 100% | 100% | 100% | 100% | 100% | 100% | 100% | 100% | 100% | 100% | 100% | 100% | 100% | 100% | 100% | 100% | 100% | 100% | 100% | 100%
5 | CCOC(OCC)c1cc2c(Cl)cc(F)c(-n3c(=O)cc(C(F)(F)F)n(C)c3=O)c2o1 [Compound 245] | 60% | 60% | 100% | 70% | 50% | 80% | 100% | 100% | 85% | 80% | 100% | 70% | 100% | 70% | 40% | 70% | 100% | 100% | 75% | 90%
6 | COC(C)(C)c1cc2c(Cl)ccc(-n3c(=O)cc(C(F)(F)F)n(C)c3=O)c2o1 [Compound 251] | 90% | 100% | 100% | 100% | 100% | 95% | 100% | 100% | 95% | 100% | 100% | 95% | 100% | 95% | 70% | 90% | 100% | 90% | 90% | 95%
7 | CCN(CC)Cc1cc2c(Cl)ccc(-n3c(=O)cc(C(F)(F)F)n(C)c3=O)c2o1 [Compound 257] | 0% | 30% | 70% | 70% | 30% | 10% | 60% | 20% | 70% | 10% | 100% | 70% | 70% | 50% | 20% | 20% | 90% | 40% | 70% | 0%
8 | CNC(=O)OCCc1cc2c(Cl)cc(F)c(-n3c(=O)cc(C(F)(F)F)n(C)c3=O)c2o1 [Compound 261] | 80% | 100% | 100% | 100% | 100% | 95% | 100% | 90% | 95% | 100% | 100% | 100% | 100% | 100% | 80% | 80% | 100% | 100% | 100% | 100%
